test: Activity toward hydrogen peroxide; format: biochemical

Row | Compound | activity toward hydrogen peroxide
1 | CC(C)c1cc(C(=O)O)c([O-])c(C(C)C)c1.CC(C)c1cc(C(=O)O)c([O-])c(C(C)C)c1.[Cu+2] [CuDIPS, copper [II] diisopropylsalicylate] | significant activity
2 | mangafodipir | significant activity
3 | manganese [III] tetrakis-(5,10,15,20)-benzoic acid porphyrin [MnTBAP] | significant activity
